According to patent US20110190345A1, “Treatment of Psychosis with a 5HT2A Antagonist and a Metabotropic Glutamate Receptor Agonist or Potentiator” (priority 2007, published 2011):

Assays:
Assay type in all cases: in vivo, rat
[1] = system: Male Wistar rats; assay: Ketamine-induced psychomotor activity (locomotor activity, total distance traveled); conditions: mGluR2/3 agonist 1 mpk; for whether ketamine increased psychomotor activity (locomotor response): FIG. 2, first 60 minutes after ketamine or saline, 5-HT2a antagonist 0.2 mpk
Excerpt: (§1) Compounds with antipsychotic efficacy are known to block Ketamine-induced psychomotor activity in rats (Bardi et al., Behavioural Pharmacology (2007), 18(2), 103-118). Male Wistar rats were received on site and housed for 7 days with food and water ad libitum. On the day of testing, animals were given vehicle (water for mGluR2/3 agonist, 1% Tween for 5-HT2A antagonist), the 5-HT2A antagonist volinanserin (0.2 mpk), the mGluR2/3 agonist (−)-2-oxa-4-aminobicyclo[3.1.0]hexane-4,6-dicarboxylate (1 mpk), or both the 5-HT2A antagonist (0.2 mpk) and the mGluR2/3 agonist (1 mpk) and placed in locomotor activity monitors. Thirty minutes later animals received a subcutaneous injection of saline or 37.5 mg/kg Ketamine and placed back into the'locomotor activity monitors for 90 minutes. Total distance traveled was used to assess locomotor behavior. The distance traveled is summed over the ninety minutes after ketamine or saline treatment.
Similarly, locomotor response was determined over the first 60 minutes after receiving ketamine or saline as a function of treatment with vehicle, the 5-HT2a antagonist (0.2 mpk), the mGluR2/3 agonist (1 mpk), or the 5-HT2a antagonist (0.2 mpk)+the mGluR2/3 agonist (1 mpk).

[2] = system: Male Wistar rats; assay: Amphetamine-induced psychomotor activity (locomotor activity, total distance traveled); conditions: FIG. 3; summed over 90 minutes after 1.5 mg/kg s.c. amphetamine; 5-HT2a antagonist 0.2 mpk, mGluR2/3 agonist 1 mpk
Excerpt: as §1, with “amphetamine-induced” for “Ketamine-induced”, “1.5” for “37.5”, “amphetamine” for “Ketamine”, “the locomotor” for “the'locomotor”, “amphetamine” for “ketamine”

[3] = system: Male Wistar rats; assay: MK-801-induced psychomotor activity (locomotor activity, total distance traveled); conditions: 5-HT2A antagonist 0.2 mpk, mGluR2/3 agonist 1 mpk; for reduction of the response to MK-801: 90 minutes after 0.2 mg/kg s.c. MK-801; for psychomotor activity, total distance traveled after MK-801: summed over 90 minutes after 0.2 mg/kg s.c. MK-801, control≃200 cm, MK-801 alone≃2000 cm
Experimental: Male Wistar rats were received on site and housed for 7 days with food and water ad libitum. […] Thirty minutes later animals received a subcutaneous injection of saline or 0.2 mg/kg MK-801 and were placed back into the locomotor activity monitors for 90 minutes. Total distance traveled was used to assess locomotor behavior. The distance traveled is summed over the ninety minutes after MK-801 or saline treatment.

SMILES	response to ketamine (psychomotor activity, distance traveled) relative to the 0-0-Ketamine group ([1]; FIG. 1, summed over 90 minutes after 37.5 mg/kg s.c. ketamine, 5-HT2A antagonist 0.2 mpk, given 30 min before)	whether ketamine increased psychomotor activity (locomotor response) [1]	influence on amphetamine-induced psychomotor activity [2]	reduction of the response to MK-801 [3]	psychomotor activity, total distance traveled after MK-801 [3] [cm]
NC1(C(=O)O)COC2C(C(=O)O)C21 (single isomer, unassigned; (-)) [mGluR2/3 agonist, (−)-2-oxa-4-aminobicyclo[3.1.0]hexane-4,6-dicarboxylate]	decreased the response to ketamine	ketamine increased psychomotor activity	did not influence amphetamine-induced psychomotor activity	Neither the mGluR2/3 agonist nor the 5-HT2A antagonist given alone reduced the response to MK-801	~1900
COc1cccc([C@H](O)C2CCN(CCc3ccc(F)cc3)CC2)c1OC [5-HT2A antagonist, (+)-alpha-(2,3-dimethoxyphenyl)-1-[2-(4 fluorophenyl)ethyl]-4-piperidine methanol]	–	ketamine increased psychomotor activity	did not influence amphetamine-induced psychomotor activity	Neither the mGluR2/3 agonist nor the 5-HT2A antagonist given alone reduced the response to MK-801	~2500
